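Cultured in 96-well plates, cells were exposed to test compound for 48 hours across five concentrations. At the TGI there is no net growth.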
Key:
Test in all cases: growth of human tumour cells (NCI), 48 h
SN12C renal = tested on: SN12C renal
SF-268 CNS = tested on: SF-268 CNS
RXF 393 renal = tested on: RXF 393 renal
HOP-92 NSCLC = tested on: HOP-92 NSCLC
OVCAR-8 ovarian = tested on: OVCAR-8 ovarian
TK-10 renal = tested on: TK-10 renal
786-0 renal = tested on: 786-0 renal
HOP-62 NSCLC = tested on: HOP-62 NSCLC
SNB-75 CNS = tested on: SNB-75 CNS
MCF7 breast = tested on: MCF7 breast
EKVX NSCLC = tested on: EKVX NSCLC
HL-60(TB) leukemia = tested on: HL-60(TB) leukemia
SF-539 CNS = tested on: SF-539 CNS
HT29 colon = tested on: HT29 colon
COLO 205 colon = tested on: COLO 205 colon
HS 578T breast = tested on: HS 578T breast
K-562 leukemia = tested on: K-562 leukemia
MOLT-4 leukemia = tested on: MOLT-4 leukemia
ACHN renal = tested on: ACHN renal
U251 CNS = tested on: U251 CNS
SK-MEL-28 melanoma = tested on: SK-MEL-28 melanoma
SF-295 CNS = tested on: SF-295 CNS
NCI-H460 lung = tested on: NCI-H460 lung
NCI/ADR-RES ovarian = tested on: NCI/ADR-RES ovarian
MALME-3M melanoma = tested on: MALME-3M melanoma
HCC-2998 colon = tested on: HCC-2998 colon
OVCAR-4 ovarian = tested on: OVCAR-4 ovarian
UACC-257 melanoma = tested on: UACC-257 melanoma
IGROV1 ovarian = tested on: IGROV1 ovarian
UO-31 renal = tested on: UO-31 renal
MDA-MB-231 breast = tested on: MDA-MB-231 breast
SR leukemia = tested on: SR leukemia
MDA-N = tested on: MDA-N
RPMI-8226 leukemia = tested on: RPMI-8226 leukemia
HCT-116 colon = tested on: HCT-116 colon
NCI-H226 lung = tested on: NCI-H226 lung
PC-3 prostate = tested on: PC-3 prostate
KM12 colon = tested on: KM12 colon
T-47D breast = tested on: T-47D breast
SK-MEL-5 melanoma = tested on: SK-MEL-5 melanoma
OVCAR-3 ovarian = tested on: OVCAR-3 ovarian
A498 renal = tested on: A498 renal
BT-549 breast = tested on: BT-549 breast
HCT-15 colon = tested on: HCT-15 colon
A549 NSCLC = tested on: A549 NSCLC
SNB-19 CNS = tested on: SNB-19 CNS
LOX IMVI melanoma = tested on: LOX IMVI melanoma
MDA-MB-435 = tested on: MDA-MB-435
OVCAR-5 ovarian = tested on: OVCAR-5 ovarian
DU-145 prostate = tested on: DU-145 prostate
M14 melanoma = tested on: M14 melanoma
SW-620 colon = tested on: SW-620 colon

**Q.** What does the source list for `CC(=O)Nc1ccc(Nc2cc(=O)[nH]c(=O)[nH]2)cc1`?
**A.** TGI (SN12C renal): > 100 µM; TGI (SF-268 CNS): > 100 µM; TGI (RXF 393 renal): > 100 µM; TGI (HOP-92 NSCLC): > 100 µM; TGI (OVCAR-8 ovarian): > 100 µM; TGI (TK-10 renal): > 100 µM; TGI (786-0 renal): > 100 µM; TGI (HOP-62 NSCLC): > 100 µM; TGI (SNB-75 CNS): > 100 µM; TGI (MCF7 breast): > 100 µM; TGI (EKVX NSCLC): > 100 µM; TGI (HL-60(TB) leukemia): > 100 µM; TGI (SF-539 CNS): > 100 µM; TGI (HT29 colon): > 100 µM; TGI (COLO 205 colon): > 100 µM; TGI (HS 578T breast): > 100 µM; TGI (K-562 leukemia): > 100 µM; TGI (MOLT-4 leukemia): 37.4 µM; TGI (ACHN renal): > 100 µM; TGI (U251 CNS): > 100 µM; TGI (SK-MEL-28 melanoma): > 100 µM; TGI (SF-295 CNS): > 100 µM; TGI (NCI-H460 lung): > 100 µM; TGI (NCI/ADR-RES ovarian): > 100 µM; TGI (MALME-3M melanoma): > 100 µM; TGI (HCC-2998 colon): > 100 µM; TGI (OVCAR-4 ovarian): > 100 µM; TGI (UACC-257 melanoma): > 100 µM; TGI (IGROV1 ovarian): > 100 µM; TGI (UO-31 renal): > 100 µM; TGI (MDA-MB-231 breast): > 100 µM; TGI (SR leukemia): > 100 µM; TGI (MDA-N): > 100 µM; TGI (RPMI-8226 leukemia): > 100 µM; TGI (HCT-116 colon): > 100 µM; TGI (NCI-H226 lung): > 100 µM; TGI (PC-3 prostate): > 100 µM; TGI (KM12 colon): > 100 µM; TGI (T-47D breast): > 100 µM; TGI (SK-MEL-5 melanoma): > 100 µM; TGI (OVCAR-3 ovarian): > 100 µM; TGI (A498 renal): > 100 µM; TGI (BT-549 breast): > 100 µM; TGI (HCT-15 colon): > 100 µM; TGI (A549 NSCLC): > 100 µM; TGI (SNB-19 CNS): > 100 µM; TGI (LOX IMVI melanoma): > 100 µM; TGI (MDA-MB-435): > 100 µM; TGI (OVCAR-5 ovarian): > 100 µM; TGI (DU-145 prostate): > 100 µM; TGI (M14 melanoma): > 100 µM; TGI (SW-620 colon): > 100 µM
